Laboratory results taken from PMC9011347, “Small-Molecule Inhibitors Targeting Lipolysis in Human Adipocytes” (Journal of the American Chemical Society, 2022).

How the values were obtained:
Experiment in all cases: TAG hydrolase assay, chimeric ATGL variants
Format in all cases: biochemical, human and mouse
[1] = target: T1, Variant c3 containing aa 1–23 of human ATGL (Homo sapiens, UniProt Q96AD5, F69I/F97C/G146T/H109R/I93T/K68N/N133S/S106C/S111N/S158T/S96G/V101T/V60A); conditions: variant c3, NG-497 (10 μM) or Atglistatin (10 μM)
T1 construct: host or cells: Expi293 cells, cell lysate
T1 sequence (Q96AD5 1-288 V60A/K68N/F69I/I93T/S96G/F97C/V101T/S106C/H109R/S111N/N133S/G146T/S158T): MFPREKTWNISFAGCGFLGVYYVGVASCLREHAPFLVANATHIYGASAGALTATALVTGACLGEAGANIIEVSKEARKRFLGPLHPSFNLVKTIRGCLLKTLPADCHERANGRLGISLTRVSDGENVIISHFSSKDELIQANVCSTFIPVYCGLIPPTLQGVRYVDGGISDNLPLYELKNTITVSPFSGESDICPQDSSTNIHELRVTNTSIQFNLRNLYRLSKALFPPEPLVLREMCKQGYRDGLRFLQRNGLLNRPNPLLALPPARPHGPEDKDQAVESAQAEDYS
Experimental: (§1) Figure 5 Analysis of chimeric proteins comprising human and mouse ATGL. (a) Schematic view of the minimal active domain of wild-type and chimeric ATGL variants (c1–c9). Nonidentical aa are indicated in blue and red for mouse and human ATGL, respectively. ATGL variants were expressed in Expi293 cells and TAG hydrolase activity was determined in cell lysates in the presence or absence of NG-497 (10 μM) and Atglistatin (10 μM), respectively. Inhibition of ATGL variants by respective inhibitors (tick mark) and lack of inhibition (cross) is indicated at the right edge. The expression of all ATGL variants was confirmed by Western blotting analysis (Figure S6). (b) Dose-dependent inhibition of human ATGL (aa 1–288) and c1 (human aa 1–158 and mouse aa 159–288) by NG-497. (c) Dose-dependent inhibition of mouse ATGL (aa 1–288) and c2 (mouse aa 1–158 and human aa 159–288) by Ai. IC50 values are shown in the insets. Data are presented as relative inhibition of respective DMSO controls and are indicated as mean ± SD. (d) 3D homology model of the minimal active domain of mouse ATGL (M1–L254) depicted as a cartoon. Residues 1–178 are in blue, and residues 179–254 are in gray. S47 and D166 comprising the active site are represented as green sticks. T101, C106, R109, N111, and S133 are colored in orange, A60, N68, I69, T93, C97, and T146 are colored in magenta. TEXT PRINTED IN THE PICTURE: (b) NG-497: IC50 [μM] (human): 1.3±0.1; IC50 [μM] (c1): 1.3±0.1 | (b) Ai: IC50 [μM] (human): n.det.; IC50 [μM] (c1): n.det. | (c) NG-497: IC50 [μM] (mouse): n.det.; IC50 [μM] (c2): n.det. | (c) Ai: IC50 [μM] (mouse): 2.5±0.3; IC50 [μM] (c2): 2.4±0.1 […]
(§2) We next generated variants by further stepwise humanization of c2. Variant c3 containing aa 1–23 of human ATGL was inhibited by Ai but not NG-497 (Figure 5a). […] Finally, variants of mouse ATGL containing aa 1–146 (c7) and 60–146 (c8) of human ATGL were inhibited by NG-497 but not Ai (Figure 5a).
(§3) Experimental details, materials, and methods
(§4) Expression of recombinant ATGL constructs and preparation of cell lysates. Expi293 cells were cultivated in Expi293 Expression Medium (GIBCO, Thermo Fisher Scientific, Waltham, USA) at standard conditions (37°C, 5% CO2, 95% humidified atmosphere, 125 rpm). DNA constructs containing ATGL from different species and chimeric ATGL variants in pcDNA3.1(+)myc-His C Vector were obtained from BioCat GmbH (Heidelberg, Germany). Cells were transfected with ExpiFectamine293 Transfection Kit (GIBCO) in Opti-Mem reduced serum medium (GIBCO) according to the manufacturer’s instructions. After 48 h, cells were harvested by centrifugation and washed three times with PBS. Cells were disrupted in buffer A (0.25 M sucrose, 1 mM EDTA, 1 mM dithiothreitol, 20µg/ml leupeptin, 2 µg/ml antipain, 1 µg/ml pepstatin, pH 7.0) by sonication (Virsonic 475, Virtis, Gardiner, USA). Nuclei and debris were removed by centrifugation at 1,000 g and 4°C for 10 min. Protein concentrations were determined using Bio-Rad protein assay (Bio-Rad 785, Bio-Rad Laboratories, Munich, Germany) using BSA as standard.
(§5) Expression and purification of mouse CGI-58. CGI-58 was expressed and purified as described 1. In brief, the coding sequence of mouse Cgi-58 was cloned into pHis-Sumo and co-transformed with the plasmid pTf16 expressing the chaperone Tig into E. coli BL21(DE3). Cells were cultured overnight at 37°C and 180 rpm in the presence of 40 µg/ml kanamycin and 34 µg/ml chloramphenicol. Thereafter, cells were transferred into fresh LB medium, grown until OD600 of 0.6, and expression was induced by the addition of 0.5 mM IPTG. After overnight incubation at 30°C, cells were harvested at 4,500 x g and 4°C for 20 min, washed in 1x PBS, and resuspended in lysis buffer (20 mM Tris/HCl pH 7.8, 300 mM NaCl, 30 mM imidazole, 0.1% IGEPAL CA-630, 3.5 mM β-mercaptoethanol, 20 µg/ml leupeptin, 2 µg/ml antipain and 1 µg/ml pepstatin). Cells were incubated with 1 […]

[2] = system: c8 (mouse ATGL containing aa 60–146 of human ATGL); conditions: variant c8, NG-497 (10 μM) or Atglistatin (10 μM)
Experimental: as §1, §2, §3, §4, §5

[3] = target: T2, c7 (mouse ATGL containing aa 1–146 of human ATGL) (Mus musculus, UniProt Q8BJ56, A60V/C106S/C97F/G96S/H22Y/I23V/I69F/K7T/N111S/N68K/R109H/S133N/T101V/T146G/T6K/T93I); conditions: variant c7, NG-497 (10 μM) or Atglistatin (10 μM)
T2 construct: host or cells: Expi293 cells, cell lysate
T2 sequence (Q8BJ56 1-288 with the stated changes limits assumed): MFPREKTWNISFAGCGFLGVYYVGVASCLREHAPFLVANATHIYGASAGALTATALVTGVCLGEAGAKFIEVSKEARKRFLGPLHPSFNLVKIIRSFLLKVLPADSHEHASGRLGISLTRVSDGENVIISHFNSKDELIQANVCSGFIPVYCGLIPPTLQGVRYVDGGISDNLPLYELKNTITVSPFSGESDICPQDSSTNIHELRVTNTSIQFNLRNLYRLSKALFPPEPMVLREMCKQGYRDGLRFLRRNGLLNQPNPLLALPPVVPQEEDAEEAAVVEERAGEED
Experimental: as §1, §2, §3, §4, §5

SMILES | inhibition of TAG hydrolase activity [1] | inhibition of TAG hydrolase activity [2] | inhibition of TAG hydrolase activity [3]
CN(C)C(=O)Nc1cccc(-c2ccc(N(C)C)cc2)c1 [Atglistatin, reference compound] | inhibited | – | –
CCOc1ccc(-c2cc(OC)cc(C(=O)OC(C)C)n2)cc1 [NG-497] | – | inhibited | inhibited
